Test [1] relates to HLA class I. The test can be described thus: PEPI3+ Test: 9 mer epitopes binding to at least 3 HLA class I of individuals in the Model Population (n=433). On the set-up: species or system human. The settings on record: B % multiplied by N % (antigen expression frequency in gastric cancers). An excerpt: Predicted binding between particular HLA and epitopes (9 mer peptides) was based on the Immune Epitope Database tool for epitope prediction (iedb.org).
The validated HLA-epitope binding prediction process was used to determine all HLA-epitope binding pairs described in the Examples below.
An in silico human trial cohort of 433 subjects with complete 4-digit HLA class I […] genotype (2×HLA-A*xx:xx; 2×HLA-B*xx:xx; 2×HLA-C*xx:xx) and demographic […] information was compiled. This Model Population has subjects with mixed ethnicity having a total of 152 different HLA alleles that are representative for >85% of presently known allele G-groups.
To select immunogenic peptides from the target CTAs, the PEPI3+ Test and the Model Population described in Example 8 were used to identify the 9 mer epitopes (PEPI3+s) that are most frequently presented by at least 3 HLAs of the individuals in the Model Population. These epitopes are referred to herein as “bestEPIs”. An illustrative example of the “PEPI3+ hotspot” analysis and bestEPI identification is shown in FIG. 15 for the PRAME antigen.
The reported expression frequency for each CTA was multiplied by the frequency of the PEPI3+ hotspots in the Model Population to identify the T cell epitopes (9 mers) that will induce a cytotoxic T cell response against gastric cancer antigens in the highest proportion of individuals (Table 20a). 15 mers were then selected encompassing each of the selected 9 mers (Table 20a). The 15 mers were selected to bind to most HLA class II alleles of most subjects. These 15 mers can induce both CTL and T helper responses in the highest proportion of subjects.

The subject of test [2] is HLA class I. Described as above. On the set-up: species or system human. The following applies: N % (antigen expression frequency in lung cancers) multiplied by B %.
Test [3] concerns metastatic ovarian adenocarcinoma. Kind of test: Patient-A clinical outcome and tumor MRI findings (lesion responses). In kind it is in vivo, human. An excerpt:
For treatment of Patient-A the 13 peptides were formulated as 4×3 or 4 peptide (POC01/1, POC01/2, POC01/3, POC01/4). One treatment cycle is defined as administration of all 13 peptides within 30 days.
2017-2018: Patient-A received 8 cycles of vaccination as add-on therapy, and lived 17 months (528 days) after start of the treatment. […] They died in October 2018.
Patient's tumor MRI findings (Baseline Apr. 15, 2016) (BL: baseline for tumor response evaluation on FIG. 35)
• Rapid progression in lymph nodes, hepatic, retroperitoneal and thoracic areas, significant pleural fluid and ascites. Initiate Carboplatin, Gemcitabine, Avastin. Sep. […] Nov. […] Remission in hepatic, retroperitoneal area and lymph nodes Apr. 13, 2018: Progression • Complete remission in the thoracic and retroperitoneal regions. Progression in hepatic centers and lymph nodes Jun. […] Minimal regression in hepatic centers and lymph nodes July 2018: Progression October 2018: Patient-A died Partial MRI data for Patient-A is shown in Table 23 and FIG. 35.

Turning to “6 (RAIEQLAAM; SURVIVIN 9mer) [compound 6]”, the “B % * N %” value in test [1] is listed as 26%.

With 3 (FSYEQDPTL; TSP50 9mer) [compound 3], the “B % * N %” value in test [1] is on record as 29%.

As to “112 (FVQENYLEY; MAGE-A3 9mer) [compound 112]”, in test [2], the “N % * B %” value is 9%.

On to “94 (RAMEAFNLV; NALP4 9mer) [compound 94]”, for which, in test [2], the “N % * B %” value turned out to be 18%.

Take “101 (FQDFFPVIF; MAGE-A12 9mer) [compound 101]”: the “N % * B %” value in test [2] is listed as 13%.

Regarding “1 (KMMKRLMTV; MAGE-C1 9mer) [compound 1]”, the “B % * N %” value in test [1] is 43%.

Turning to “105 (MLAKKHFSY; BRDT 9mer) [compound 105]”, in test [2], the “N % * B %” value turned out to be 11%.

Turning to “104 (FVLANGHIL; NY-SAR-35 9mer) [compound 104]”, in test [2], the “N % * B %” value was 12%.

As for “16 (FSTTINYTL; MAGE-A2 9mer) [compound 16]”, the “B % * N %” value in test [1] is reported as 12%.

Turning to “19 (ITMPFSSPM; LAGE-1 9mer) [compound 19]”, in test [1], the “B % * N %” value came out at 9%.

“25 (KAMVQAWPF; PRAME 9mer) [compound 25]”: in test [1], the “B % * N %” value came out at 7%.

In the case of “21 (YEDHFPLLF; MAGE-A10 9mer) [compound 21]”, in test [1], the “B % * N %” value came to 8%.

With “30 (HVMNPLETL; PRAME 9mer) [compound 30]”, the “B % * N %” value in test [1] is given as 4%.

As to 90 (FAADVRLMF; BRDT 9mer) [compound 90], the “N % * B %” value in test [2] is recorded as 28%.

Regarding 2 (KMHSLLALM; CAGE-1 9mer) [compound 2], the “B % * N %” value in test [1] was 33%.

Take “106 (SVMDLVGSI; LDHC 9mer) [compound 106]”: in test [2], the “N % * B %” value is 11%.

For the molecule “17 (ILNNFPHSI; KK-LC-1 9mer) [compound 17]”, the “B % * N %” value in test [1] is recorded as 11%.

As to “18 (FVQENYLEY; MAGE-A3 9mer) [compound 18]”, the “B % * N %” value in test [1] is given as 10%.

In the case of “103 (KMMKRLMTV; DPPA2 9mer) [compound 103]”, the “N % * B %” value in test [2] is given as 13%.

Regarding 7 (FVASINEGM; HIWI 9mer) [compound 7], the “B % * N %” value in test [1] is reported as 21%.

“13 (SSNSTALAL; KK-LC-1 9mer) [compound 13]”: in test [1], the “B % * N %” value is on record as 17%.

In the case of “97 (FAHPRKLLM; MAGE-A2 9mer) [compound 97]”, the “N % * B %” value in test [2] was found to be 15%.

Turning to “SEQ ID NO: 111: 9 mer bestEPI of MAGE-C2 within 15 mer SEQ ID NO: 141; printed 'ill' (SVMSSNVSF; MAGE-C2 9mer)”, the “N % * B %” value in test [2] turned out to be 9%.

Regarding “24 (NTDNNLAVY; KK-LC-1 9mer) [compound 24]”, the “B % * N %” value in test [1] is 8%.

As for “108 (FSTTINYTL; MAGE-A2 9mer) [compound 108]”, in test [2], the “N % * B %” value was found to be 10%.

“91 (KAMVQAWPF; PRAME 9mer) [compound 91]”: the “N % * B %” value in test [2] was determined as 23%.

For the molecule 28 (MTFGRLHRI; SSX1 9mer) [compound 28], in test [1], the “B % * N %” value came out at 7%.

For the molecule 8 (TTMETQFPV; TSP50 9mer) [compound 8], the “B % * N %” value in test [1] was found to be 21%.

For “119 (RALAETSYV; MAGE-A1 9mer) [compound 119]”, the “N % * B %” value in test [2] came out at 5%.

Consider 11 (SSFSSSAPF; 5T4 9mer) [compound 11], for which the “B % * N %” value in test [1] is 17%.

“98 (RAIEQLAAM; SURVIVIN 9mer) [compound 98]”: in test [2], the “N % * B %” value was determined as 15%.

Turning to “100 (HVMNPLETL; PRAME 9mer) [compound 100]”, the “N % * B %” value in test [2] is 14%.

Consider “93 (YSSFVFNLF; NALP4 9mer) [compound 93]”, for which the “N % * B %” value in test [2] is 19%.

`O=C(c1cc(Cc2n[nH]c(=O)c3ccccc23)ccc1F)N1CCN(C(=O)C2CC2)CC1` [Olaparib]: the “FU2 (% Δ from BL)” value in test [3] (SUM of lesions, Dec. 25, 2016, before PIT vaccine treatment) is given as −76.0%; in test [3] (lesion TL2, Dec. 25, 2016, before PIT vaccine treatment), −100.0%; in test [3] (lesion TL4, Dec. 25, 2016, before PIT vaccine treatment), −100.0%. The “FUI (% Δ from BL)” value in test [3] (lesion TL2, follow up 1, Olaparib treatment May 2016-January 2017) is reported as −100.0%. For the same molecule, the “Best Response Cycle” value is reported as “FU1” in test [3] (lesion TL2, follow-up time point of best response) and “FU2” in test [3] (lesion TL4, follow-up time point of best response).

Regarding “22 (TSYVKVLEY; MAGE-A1 9mer) [compound 22]”, the “B % * N %” value in test [1] amounted to 8%.

Regarding 9 (LASNHFLYL; 5T4 9mer) [compound 9], in test [1], the “B % * N %” value is listed as 21%.

As to “29 (RALAETSYV; MAGE-A1 9mer) [compound 29]”, the “B % * N %” value in test [1] is recorded as 5%.

Turning to “114 (STFKNWPFL; SURVIVIN 9mer) [compound 114]”, the “N % * B %” value in test [2] is listed as 9%.

For the molecule “115 (YLRLHRHAY; DPPA2 9mer) [compound 115]”, the “N % * B %” value in test [2] was 9%.

In the case of “110 (FVYGEPREL; MAGE-C2 9mer) [compound 110]”, the “N % * B %” value in test [2] turned out to be 10%.

As to 4 (YLRLHRHAY; DPPA2 9mer) [compound 4], the “B % * N %” value in test [1] worked out at 28%.

For the molecule “117 (SSNSTALAL; KK-LC-1 9mer) [compound 117]”, the “N % * B %” value in test [2] came out at 7%.

Take “95 (FVIDSFEEL; NALP4 9mer) [compound 95]”: the “N % * B %” value in test [2] was 17%.

5 (LQYENSIML; HIWI 9mer) [compound 5]: in test [1], the “B % * N %” value is 28%.

Turning to “27 (SAFPTTINF; MAGE-A1 9mer) [compound 27]”, the “B % * N %” value in test [1] came out at 7%.

For the molecule “109 (MASESLSVM; MAGE-C2 9mer) [compound 109]”, in test [2], the “N % * B %” value was 10%.

Regarding “12 (FAHPRKLLM; MAGE-A2 9mer) [compound 12]”, in test [1], the “B % * N %” value is recorded as 17%.

Take 10 (FLYLPRDVL; 5T4 9mer) [compound 10]: the “B % * N %” value in test [1] is on record as 21%.

As to “99 (YIAQFTSQF; PRAME 9mer) [compound 99]”, the “N % * B %” value in test [2] is recorded as 14%.

Take “118 (FSTSSSLIL; MAGE-C2 9mer) [compound 118]”: the “N % * B %” value in test [2] amounted to 7%.

On to “102 (LLRHVMNPL; PRAME 9mer) [compound 102]”, for which the “N % * B %” value in test [2] was 13%.

For the molecule “107 (MMDLQHGSL; LDHC 9mer) [compound 107]”, in test [2], the “N % * B %” value is recorded as 11%.

Take “15 (STFKNWPFL; SURVIVIN 9mer) [compound 15]”: in test [1], the “B % * N %” value is on record as 15%.

As for 92 (FSWPFQRPV; BRDT 9mer) [compound 92], the “N % * B %” value in test [2] came out at 21%.

Turning to “14 (STNALIQPV; CAGE-1 9mer) [compound 14]”, the “B % * N %” value in test [1] amounted to 16%.

Values taken from patent publication US11666644B2, “Peptide vaccines” (TREOS BIO LIMITED, priority 2018, dated 2023).
